US11572402B2, “Method for promoting diversification of antibody variable region” (Chiome Bioscience Inc., priority 2017, dated 2023)
“Also recorded” adds a separate entry of the source.

Test system: hVEGF-A-#33 cell line
Assay: Screening for diversification-promoting compounds by FCM (hIgG+_hVEGF-A− population)
Assay type: cell-based, chicken
Conditions: hVEGF-A-#33 cells expressing human IgG, versus negative control CS(−)
Experimental: Frozen stocks of the hVEGF-A #33 cell line and the hVEGF-A #44 cell line (3.0×10^6 cells) were each awaken with a CS(-) medium, using a 25 cm^2 Flask (Corning, 430639), and were then cultured in a CO2 incubator (SANYO CO2 Incubator MCO-20AIC, 39.5° C., 5% CO2). On the following day, the cells were seeded on a 6-well dish (Nunc, 140675) to a cell density of 1.0×10^4 cells/mL (wherein the cell concentration and the survival rate were measured using CASY cell counter (Nepa Gene)). The cells were cultured in a CS(+) medium, in the presence or absence of a PI3Kα inhibitor ([…]: 10 μM, PI3Kα Inhibitor 2: 500 nM). Moreover, after the cells had been cultured for 2 days, individual samples were subcultured under the same conditions to result in a cell density of 1.0×10^4 cells/mL. Further, after completion of the culture for 3 days, individual samples were subcultured under the same conditions to result in a cell density of 6.0×10^4 cells/mL, and the culture was continued. After completion of the culture for 2 days (Day 7 of the culture), individual samples were centrifuged to remove a supernatant, and the residue was then suspended in a CS(+) medium supplemented with 1 μM FK-506 (hereinafter referred to as a “CS/FK medium”). The suspension was centrifuged again to remove a supernatant. This washing step was carried out repeatedly twice, and individual samples were then suspended in a CS/FK medium supplemented with AF647-labeled hVEGF-A (10 nM) and 2,000-fold diluted Goat Anti-Human IgG-PE. The light was shielded, and the obtained suspension was then reacted at 4° C. for 30 min. After completion of the staining, the reaction mixture was washed with a CS/FK medium twice, and each sample was then suspended in the CS/FK medium. Thereafter, using FACS Aria Fusion (BD), FCM and single cell sorting was carried out. Dead cells were removed using FSC-SSC plot. A plot, in which the vertical axis indicated AF647 (AF647-labeled hVEGF-A) and the longitudinal axis indicated PE (Goat Anti-Human IgG-PE), was developed, and the percentage of PE+(hIgG+)/AF647-(hVEGF-A-) cells was then calculated. In order to make a comparison regarding the number of cells with improved antigen-binding ability according to Affinity Maturation under individual conditions, Affinity Maturation Gate was established according to the following criteria. First, the plot was converted to a contour plot in FCM analysis, and a trapezoid gate having an inclination that was in parallel with the contour of a population in which the most cells were gathered (hereinafter referred to as a “main population”) was established. […] At that time, the vertex of the trapezoid gate was set to be overlapped with the mean value MFI of the main population, and then, a cell population having low antigen-binding ability and a cell population having a low expression level of antibody were set not to enter the gate. The percentage of clones with improved antigen-binding ability was calculated by counting the number of cells existing in this Affinity Maturation Gate and then dividing the obtained value by the total number of the analyzed cells. […]

Cc1nc(NC(=O)N2CCC[C@H]2C(N)=O)sc1-c1csc(C(C)(C)C)n1 [A66]
percentage of hIgG+_hVEGF-A− cell population (diversification-promoting effect): increased in comparison to the negative control (CS(−)); also recorded: highest diversification-promoting effects
